Measured values taken from paper PMC6102577, “Discovery of Pyrazolo[4,3-c]quinolines Derivatives as Potential Anti-Inflammatory Agents through Inhibiting of NO Production” (Molecules : A Journal of Synthetic Chemistry and Natural …, 2018).
“And” between values parts separate entries of the source, which are not always exact repeats. Equal values may be shown once. Read-outs that look alike come from different tables or passages of the source.

Tests used:
[1] = system: LPS-stimulated NO production in RAW 264.7 cells; test: Inhibition of LPS-induced NO production (nitrite accumulation, Griess reaction) in RAW 264.7 cells; format: cell-based; settings: for inhibition at 10 µM: compound 10 μM, read-out: Percent Inhibition of NO Production at 10 μM
Method: Treatment of Raw 264.7 cells with LPS (0.1 μg/mL) for 24 h induced NO production which were assessed by measuring the accumulation of nitrite, a stable metabolite of NO, in the media based on Griess reaction. […] However, compound 2a was also highly cytotoxic, in which the survival rate of RAW 264.7 cells was only 9% at a drug concentration of 10 μM. […] The position of substitution play an important role in which substitution at para-position is usually more favorable than its ortho- or meta- counterpart in the inhibitory activity on the LPS-induced NO production. […] Various substituted groups have been introduced on the para-position of the phenyl ring.
Raw 264.7 cells, purchased from Bioresource Collection and Research Center, Taiwan, were cultured in DMEM, supplemented with 5% fetal bovine serum, 100 units/mL of penicillin, 100 μg/mL of streptomycin, 2 mM L-glutamine, and 1 mM non-essential amino acids in a 10-cm plate at a density of 1 × 10^6 cells/mL, at 37 °C in a humidified atmosphere containing 5% CO2.
Nitrite was measured by adding 100 μL of the Griess reagent (1% sulfanilamide and 0.1% N-(1-naphthyl)ethylenediamine dihydrochloride in 5% phosphoric acid) to 100 μL of medium for 5 min. The optical density at 550 nm (OD550) was measured with a microplate reader. Concentrations were calculated by comparison with the OD550 of a standard solution of sodium nitrite prepared in culture medium.

RAW 264.7 cells = test: Cell viability (XTT method) of RAW 264.7 cells; format: cell-based; settings: compound 10 μM, 24 h, means ± S.D.
Method: To evaluate whether the suppressive effect of compounds on NO production is related to cell viability, Raw 264.7 cells were treated with LPS for 24 h, and washed with 500 μL of phosphate buffer solution (PBS) before resuspended in 1 mL of culture medium. Cell viability tests were run in parallel with NO production assays with an initial cell density of 5 × 10^3 cells/well in the presence or absence of test compounds at 10 μM or 0.1% DMSO as control.

[2] = NO-scavenging activity (sodium nitroprusside, nitrite by Griess reaction); settings: SNP 2.5 mM, compound 10 μM, light, room temperature, 60 min
Method: NO-scavenging effects of pyrazolo[4,3-c]quinolines 2i and 2m were measured according to the reported method. Sodium nitroprusside (SNP) (2.5 mM) was incubated alone or in combination with tested compound (10 μM) or 1400W(10 μM) in light at room temperature for 60 min.
To understand the inhibitory effects of compounds 2i and 2m on NO production, sodium nitroprusside (SNP) was freshly prepared at […] in PBS was incubated alone or in combination with 10 µM of the different compounds. SNP is an inorganic complex where NO is found as NO^+ and light irradiation is necessary for the release of NO. Therefore, incubation mixtures were incubated in light at room temperature, and nitrite levels were determined after 60 min by Griess reaction.
Figure 1 NO-scavenging effects of 1400W, compounds 2i and 2m. SNP solution (2.5 mM) in PBS was incubated alone or with tested compound (10 μM) or 1400W (10 μM) in the presence of light at room temperature for 60 min.

iNOS mRNA expression = test: LPS-induced iNOS mRNA expression in RAW 264.7 cells (RT-PCR); format: cell-based; settings: pretreated 2 h, LPS 0.1 μg/mL
From the text: Total RNA was extracted by Trizol-Reagent (Invirogen, Carlsbad, CA, USA) according to the manufacturer’s manual. One microgram of RNA was used for the reverse transcription of first strand cDNA using the oligo dT primers. Five microliters of cDNA were used for the amplification of iNOS and GAPDH (glyceraldehyde 3-phosphate dehydrogenase) mRNA expression. The primers for rat iNOS are as follows, forward: 5′-ACTGCGTCGCTTCATTAGGT-3′ and reverse: 5′-TAGGCAAGCGCTTTACCACT-3′. The primers for rat glyceraldehydes 3-phosphate dehydrogenase are as follows, forward: 5′-ATGGCACAGTCAAGGCTGAGA-3′ reverse: 5′-AGACGCCAGTAGACTCCACGAC-3′. The amplicons were electrophoresed on a 3% agarose gel and band intensities were measured using a spectrophotometer (Thermo Fisher Scientific, Waltham, MA, USA) and normalized against GAPDH.
Figure 3 Inhibitory effects of compound 2i and 2m on LPS-induced iNOS mRNA expression. Cells (5 × 10^5 cells/well) were pretreated with the indicated concentrations of tested compounds for 2 h before incubation with 0.1 μg/mL LPS for 9 h. Total RNA was prepared for RT-PCR analysis of iNOS mRNA expression in LPS-stimulated RAW 264.7 cells. GAPDH were used as internal controls for the RT-PCR assays3.4. Inhibition of LPS-inducible COX-2 expression.

COX-2 protein expression = test: LPS-inducible COX-2 protein expression in RAW 264.7 cells (western blot); format: cell-based, murine; settings: pretreated 2 h, LPS 0.1 μg/mL 24 h
Method: The effects of compounds 2i and 2m on iNOS and COX-2 protein expression in LPS stimulated Raw 264.7 cell were assessed by western blot. Briefly, Raw 264.7 cells were pretreated with tested compound for 2 h before stimulation in the presence or absence of LPS (0.1 μg/mL). Cells were harvested and lysed with RIPA lysis buffer (50 mM Tris–Cl, pH 8.0, 150 mM NaCl, 0.1% SDS, 0.5% NP-40, 1% sodiumdeoxycholate, 1 mM phenylmethyl-sulfonylfluoride, 1 mM EDTA, no added proteinase) at 24 h after treatment. The total protein concentration in the cell lysates was measured according to the method described by Bradford. Equal amounts (15 μg) of protein were loaded and separated by using 8% SDS–PAGE and analyzed by western blot (ECL Amersham, Bensheim, Germany). The relative expression of proteins was quantified densitometrically using the software LabWorks 4.5 and was normalized againstβ-actin.
Figure 4 Inhibition of COX-2 expression by compound 2i and 2m in LPS-stimulated RAW 264.7 cells. Cells (5 × 10^5 cells/well) were pretreated with the indicated concentrations of tested compounds for 2 h before incubation with 0.1 μg/mL LPS for 24 h. Cell lysates were then prepared and western blots were performed using an antibody specific for murine COX-2.

[3] = Mus musculus, RAW264.7, 24 h, RAW 264.7 cells, LPS 0.1 μg/mL 24 h, means ± S.D., read-out: IC50 (inhibition of LPS-induced NO production)
[4] = Mus musculus, RAW264.7, training dataset, negative logarithm of IC50 values, read-out: Observed pIC50 (converted)
[5] = Mus musculus, RAW264.7, RAW 264.7 cells, LPS 0.1 μg/mL 24 h, means ± S.D.
[6] = Mus musculus, RAW264.7, test dataset, negative logarithm of IC50 values, read-out: Observed pIC50 (converted)
[7] = Mus musculus, RAW264.7, RAW 264.7 cells, LPS 0.1 μg/mL 24 h, means ± S.D., read-out: IC50 (inhibition of LPS-induced NO production)

| Compound | IC50 [1, 3] [nM] | IC50 [1, 4] [nM] | inhibition at 10 µM [1, 5] [%] | Cell Survival Rate at 10 μM (RAW 264.7 cells) | IC50 [1, 6] [nM] | IC50 [1, 7] [nM] | melting point [°C] | IC50 ([1]; RAW 264.7 cells, LPS 0.1 μg/mL 24 h, means ± S.D., read-out: IC50 (inhibition of LPS-induced NO production)) [nM] | NO-scavenging effect (levels of nitrite from SNP) [2] | Inhibition of LPS-stimulated iNOS mRNA expression (iNOS mRNA expression) | Inhibition of LPS-induced COX-2 protein expression (COX-2 protein expression) |
| --- | --- | --- | --- | --- | --- | --- | --- | --- | --- | --- | --- |
| Nc1n[nH]c2c1c(Nc1ccccc1)nc1ccccc12 [Compound 2a, 3-Amino-4-phenylamino-1H-pyrazolo[4,3-c]quinoline] | 390 ± 80 | 390 | 81.7 ± 0.99 | 9% and 9.09 ± 0.24% |  |  |  |  |  |  |  |
| Nc1n[nH]c2c1c(Nc1ccccc1O)nc1ccccc12 [Compound 2b] | 420 ± 110 | 420 | 103 ± 6.55 | 53.48 ± 1.53% |  |  |  |  |  |  |  |
| COc1ccccc1Nc1nc2ccccc2c2[nH]nc(N)c12 [Compound 2c, 3-Amino-4-(2-methoxyphenylamino)-1H-pyrazolo[4,3-c]quinoline] |  |  | 82.2 ± 6.49 | 47.31 ± 1.67% | 490 | 490 ± 140 | 210 to 211 |  |  |  |  |
| Nc1n[nH]c2c1c(Nc1cccc(O)c1)nc1ccccc12 [Compound 2d] | 770 ± 230 |  | 93.5 ± 7.57 | 81.70 ± 0.09% | 770 |  |  |  |  |  |  |
| COc1cccc(Nc2nc3ccccc3c3[nH]nc(N)c23)c1 [Compound 2e, 3-Amino-4-(3-methoxyphenylamino)-1H-pyrazolo[4,3-c]quinoline] | 770 |  | 101 ± 1.31 | 94.32 ± 0.49% | 720 |  | 184 to 186 | 720 ± 180 |  |  |  |
| CC(=O)c1cccc(Nc2nc3ccccc3c3[nH]nc(N)c23)c1 [Compound 2f, 3-Amino-4-(3-acetylphenylamino)-1H-pyrazolo[4,3-c]quinoline] | 290 ± 60 |  | 99.1 ± 2.16 | 94.37 ± 0.36% | 290 |  | > 380 |  |  |  |  |
| Nc1n[nH]c2c1c(Nc1ccc(Cl)cc1)nc1ccccc12 [Compound 2g] | 320 ± 50 | 320 | 104 ± 6.71 | 81.61 ± 0.14% |  |  |  |  |  |  |  |
| Nc1n[nH]c2c1c(Nc1ccc(F)cc1)nc1ccccc12 [Compound 2h] | 410 ± 70 |  | 94.8 ± 9.47 | 89.99 ± 0.02% | 410 |  |  |  |  |  |  |
| Nc1ccc(Nc2nc3ccccc3c3[nH]nc(N)c23)cc1 [Compound 2j] | 920 ± 50 | 920 | 95.1 ± 3.75 | 90.26 ± 0.05% |  |  |  |  |  |  |  |
| COc1ccc(Nc2nc3ccccc3c3[nH]nc(N)c23)cc1 [Compound 2k] | 480 ± 140 |  | 90.8 ± 11.9 | 90.57 ± 0.03% | 480 |  |  |  |  |  |  |
| CC(=O)c1ccc(Nc2nc3ccccc3c3[nH]nc(N)c23)cc1 [Compound 2l] | 290 ± 80 | 290 | 102 ± 6.49 | 87.80 ± 0.11% |  |  |  |  |  |  |  |
| Nc1n[nH]c2c1c(Nc1ccc(C(=O)O)cc1)nc1ccccc12 [Compound 2m, 4-(3-amino-1H-pyrazolo[4,3-c]quinolin-4-ylamino)benzoic acid] | 220 ± 70 | 250 | 87.7 ± 9.93 | 85.42 ± 0.77% |  |  |  |  | did not affect the levels of nitrite | inhibited the LPS-stimulated iNOS mRNA production in a dose-dependent manner | effectively suppressed the induction of COX-2 protein expression by LPS |
| Nc1n[nH]c2c1c(Nc1ccc(C(F)(F)F)cc1)nc1ccccc12 [Compound 2n] | 360 ± 90 | 360 | 107 ± 2.48 | 69.14 ± 0.62% |  |  |  |  |  |  |  |
| Cc1ccc(Nc2nc3ccccc3c3[nH]nc(N)c23)cc1 [Compound 2o] | 470 ± 70 | 470 | 100 ± 3.02 | 84.53 ± 0.04% |  |  |  |  |  |  |  |
| Nc1n[nH]c2c1c(Nc1ccc([N+](=O)[O-])cc1)nc1ccccc12 [Compound 2p] | 400 ± 90 | 400 | 89.11 ± 0.86 | 90.86 ± 0.32% |  |  |  |  |  |  |  |
| CSc1ccc(Nc2nc3ccccc3c3[nH]nc(N)c23)cc1 [Compound 2q, 3-Amino-4-(4-methylthiophenylamino)-1H-pyrazolo[4,3-c]quinoline] | 360 ± 80 | 360 | 102 ± 7.01 | 89.62 ± 0.05% |  |  | 269 to 271 |  |  |  |  |
| COc1cc(Nc2nc3ccccc3c3[nH]nc(N)c23)cc(OC)c1OC [Compound 2r, 3-Amino-4-(3,4,5-trimethoxyphenylamino)-1H-pyrazolo[4,3-c]quinoline] | 350 ± 60 | 350 | 107 ± 2.58 | 85.24 ± 0.04% |  |  | 161 to 162 |  |  |  |  |
| CC(=N)NCc1cccc(CN)c1.Cl.Cl [Compound 1400w, N-[[3-(Aminomethyl)-phenyl]methyl]-ethanimidamide dihydrochloride, reference compound] |  |  | 102 ± 2.16 | 99.54 ± 2.51% |  | 200 ± 20 |  |  | did not affect the levels of nitrite |  |  |
